Results as given in patent US8471005B2 (Cephalon, Inc., priority 2008, dated 2013).
Where two headings read alike, the source gives them in different places.

What was measured:
JAK2 = biological target: T1, JAK2 (Homo sapiens, UniProt O60674); assay: Recombinant Human JAK2 Kinase Assay (TRF); assay type: biochemical; conditions: read-out: JAK2 Potency
T1 construct: host or cells: baculovirus expression system
Outline: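 Baculovirus-expressed JAK2 (15 ng/ml) phosphorylated a biotinylated 15-mer peptide captured on Neutravidin-coated plates, in 20 mM HEPES pH 7.2 with 0.2 μM ATP, 1 mM MnCl2, 0.1% BSA and 2.5% DMSO. Reaction ran 20 min at room temperature; phosphopeptide was detected by time-resolved fluorescence with Eu-N1-labelled PY100 antibody.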

ALK = biological target: T2, ALK (Homo sapiens, UniProt Q9UM73); assay: ALK Kinase Assay (ELISA/TRF, PLC-γ substrate); assay type: biochemical; conditions: read-out: ALK Potency
T2 construct: host or cells: baculovirus expression system
Outline: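 Time-resolved fluorescence ELISA using Eu-N1 PT66 antibody to detect phosphorylated PLC-γ (coated at 10 μg/mL). Enzyme at 30 ng/ml ALK; 15 min incubation, 37° C.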

[1] = JAK2 kinase inhibition, 0.2 μM ATP
[2] = ALK kinase inhibition, 1 μM ATP

T1 sequence (O60674 whole entry): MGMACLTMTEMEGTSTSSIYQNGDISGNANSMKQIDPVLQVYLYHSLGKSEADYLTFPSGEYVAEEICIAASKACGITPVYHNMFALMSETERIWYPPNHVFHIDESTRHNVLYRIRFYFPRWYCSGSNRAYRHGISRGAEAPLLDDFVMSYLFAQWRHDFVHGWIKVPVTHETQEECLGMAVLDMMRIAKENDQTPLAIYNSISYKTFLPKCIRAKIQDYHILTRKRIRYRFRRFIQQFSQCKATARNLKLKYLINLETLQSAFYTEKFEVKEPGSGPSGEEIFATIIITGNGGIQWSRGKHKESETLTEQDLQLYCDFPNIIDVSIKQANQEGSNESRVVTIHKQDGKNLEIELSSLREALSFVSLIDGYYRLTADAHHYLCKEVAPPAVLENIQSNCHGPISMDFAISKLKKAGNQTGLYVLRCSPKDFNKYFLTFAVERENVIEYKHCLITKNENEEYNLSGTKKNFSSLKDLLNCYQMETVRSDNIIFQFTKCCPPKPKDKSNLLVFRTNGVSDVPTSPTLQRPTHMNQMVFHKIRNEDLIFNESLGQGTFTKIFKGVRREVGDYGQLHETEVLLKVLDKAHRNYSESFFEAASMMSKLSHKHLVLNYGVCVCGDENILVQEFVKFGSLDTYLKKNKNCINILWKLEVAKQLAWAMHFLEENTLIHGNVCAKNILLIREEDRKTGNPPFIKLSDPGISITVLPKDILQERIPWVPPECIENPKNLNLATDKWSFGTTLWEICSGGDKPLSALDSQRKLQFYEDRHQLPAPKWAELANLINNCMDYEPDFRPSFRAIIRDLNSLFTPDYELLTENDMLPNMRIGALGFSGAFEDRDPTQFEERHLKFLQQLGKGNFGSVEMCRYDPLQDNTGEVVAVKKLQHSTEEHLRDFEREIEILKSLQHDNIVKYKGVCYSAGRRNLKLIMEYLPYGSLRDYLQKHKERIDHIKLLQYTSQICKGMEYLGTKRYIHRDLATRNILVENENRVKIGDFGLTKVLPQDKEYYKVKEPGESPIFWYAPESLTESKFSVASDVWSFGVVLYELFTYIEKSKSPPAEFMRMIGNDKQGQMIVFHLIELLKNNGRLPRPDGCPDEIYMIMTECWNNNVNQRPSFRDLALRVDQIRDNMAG
T2 sequence (Q9UM73 19-1620): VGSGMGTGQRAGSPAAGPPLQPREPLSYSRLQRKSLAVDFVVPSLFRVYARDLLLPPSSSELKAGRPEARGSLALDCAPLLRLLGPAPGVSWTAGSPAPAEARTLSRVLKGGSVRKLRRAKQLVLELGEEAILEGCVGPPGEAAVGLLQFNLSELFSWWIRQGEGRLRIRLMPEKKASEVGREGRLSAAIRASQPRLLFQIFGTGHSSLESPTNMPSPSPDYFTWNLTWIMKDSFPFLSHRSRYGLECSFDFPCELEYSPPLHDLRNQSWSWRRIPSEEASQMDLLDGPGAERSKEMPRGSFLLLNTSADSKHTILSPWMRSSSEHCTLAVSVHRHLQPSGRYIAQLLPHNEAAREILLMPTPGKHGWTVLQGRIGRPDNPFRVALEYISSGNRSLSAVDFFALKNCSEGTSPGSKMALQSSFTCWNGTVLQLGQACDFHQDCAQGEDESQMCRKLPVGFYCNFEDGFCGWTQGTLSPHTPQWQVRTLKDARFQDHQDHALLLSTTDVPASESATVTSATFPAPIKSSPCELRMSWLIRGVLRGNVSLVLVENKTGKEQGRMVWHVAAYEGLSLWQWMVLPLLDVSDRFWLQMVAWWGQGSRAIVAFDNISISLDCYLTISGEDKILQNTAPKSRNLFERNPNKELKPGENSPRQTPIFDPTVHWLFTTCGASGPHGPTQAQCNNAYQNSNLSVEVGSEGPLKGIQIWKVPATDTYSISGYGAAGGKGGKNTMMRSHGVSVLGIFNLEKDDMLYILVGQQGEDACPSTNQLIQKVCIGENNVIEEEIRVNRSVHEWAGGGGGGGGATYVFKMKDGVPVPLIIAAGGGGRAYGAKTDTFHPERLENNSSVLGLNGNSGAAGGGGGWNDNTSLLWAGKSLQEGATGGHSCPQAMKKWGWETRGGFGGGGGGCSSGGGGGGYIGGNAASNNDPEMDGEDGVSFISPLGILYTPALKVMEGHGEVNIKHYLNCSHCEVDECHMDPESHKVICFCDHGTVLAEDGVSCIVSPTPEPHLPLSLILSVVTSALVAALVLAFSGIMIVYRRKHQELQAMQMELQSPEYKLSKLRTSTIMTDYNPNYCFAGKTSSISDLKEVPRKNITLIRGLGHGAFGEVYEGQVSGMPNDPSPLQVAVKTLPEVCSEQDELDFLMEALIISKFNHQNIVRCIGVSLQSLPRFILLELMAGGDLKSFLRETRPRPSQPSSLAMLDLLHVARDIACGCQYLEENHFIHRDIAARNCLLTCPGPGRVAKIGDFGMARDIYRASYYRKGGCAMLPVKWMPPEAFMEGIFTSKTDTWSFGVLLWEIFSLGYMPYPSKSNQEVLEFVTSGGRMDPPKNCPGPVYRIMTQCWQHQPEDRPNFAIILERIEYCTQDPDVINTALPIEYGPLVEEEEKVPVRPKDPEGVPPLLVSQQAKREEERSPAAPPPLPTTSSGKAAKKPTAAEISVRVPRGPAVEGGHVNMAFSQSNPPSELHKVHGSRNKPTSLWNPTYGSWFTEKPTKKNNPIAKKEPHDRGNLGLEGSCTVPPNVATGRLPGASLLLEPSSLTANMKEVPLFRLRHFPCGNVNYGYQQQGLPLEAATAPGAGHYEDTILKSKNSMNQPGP

Row | Structure (SMILES) | IC50 (JAK2; [1]) | IC50 (ALK; [2]) | IC50 (JAK2; JAK2 Kinase Inhibition) | IC50 (ALK; ALK Kinase Inhibition)
1 | COc1ccc(-c2ccn3nc(Nc4ccc(N5CCN(C)CC5)cc4)ncc23)cc1 [Example 724, [5-(4-Methoxy-phenyl)-pyrrolo[2,1-f][1,2,4]triazin-2-yl]-[4-(4-methyl-piperazin-1-yl)-phenyl]-amine] | > 10000 nM | > 10000 nM | – | –
2 | Fc1ncccc1-c1ccc2cnc(Nc3ccc(N4CCOCC4)cc3)nn12 [Example 1040, [7-(2-Fluoro-pyridin-3-yl)-pyrrolo[2,1-f][1,2,4]triazin-2-yl]-(4-morpholin-4-yl-phenyl)-amine] | < 100 nM | 100 to 1000 nM | – | –
3 | COc1ccc(-c2ccc3cnc(Nc4ccc(CN5CCN(C)CC5)cc4)nn23)cn1 [Example 1214, [7-(6-Methoxy-pyridin-3-yl)-pyrrolo[2,1-f][1,2,4]triazin-2-yl]-[4-(4-methyl-piperazin-1-ylmethyl)-phenyl]-amine] | < 100 nM | 100 to 1000 nM | – | –
4 | CN1CCN(C(=O)C2CCCN(c3ccc(Nc4ncc5ccc(-c6ccc(S(C)(=O)=O)cc6)n5n4)cc3)C2)CC1 (stereo not shown) [Example 446, (1-{4-[7-(4-Methanesulfonyl-phenyl)-pyrrolo[2,1-f][1,2,4]triazin-2-ylamino]-phenyl}-piperidin-3-yl)-(4-methyl-piperazin-1-yl)-methanone] | – | – | < 100 nM | 1000 to 10000 nM
5 | CC(=O)Nc1cc(Nc2ncc3ccc(-c4cccc(S(=O)(=O)NC(C)(C)C)c4)n3n2)ccc1C [Example 1398, N-{5-[7-(3-tert-Butylsulfamoyl-phenyl)-pyrrolo[2,1-f][1,2,4]triazin-2-ylamino]-2-methyl-phenyl}-acetamide] | – | – | < 100 nM | 100 to 1000 nM
6 | COc1ccccc1-c1ccc2cnc(Nc3ccc(N4CCCC(N5CCOCC5)C4)cc3)nn12 (stereo not shown) [Example 343, [7-(2-Methoxy-phenyl)-pyrrolo[2,1-f][1,2,4]triazin-2-yl]-[4-(3-morpholin-4-yl-piperidin-1-yl)-phenyl]-amine] | – | – | < 100 nM | < 100 nM
7 | CC(C)(C)NS(=O)(=O)c1cccc(-c2ccc3cnc(Nc4ccc(C5CCN(CCO)CC5)cc4)nn23)c1 [Example 670, N-tert-Butyl-3-(2-{4-[1-(2-hydroxy-ethyl)-piperidin-4-yl]-phenylamino}-pyrrolo[2,1-f][1,2,4]triazin-7-yl)-benzenesulfonamide] | < 100 nM | 100 to 1000 nM | – | –
8 | COc1ccc(-c2ccc3cnc(Nc4ccc(-c5cccnc5)cc4)nn23)cn1 [Example 1088, [7-(6-Methoxy-pyridin-3-yl)-pyrrolo[2,1-f][1,2,4]triazin-2-yl]-(4-pyridin-3-yl-phenyl)-amine] | < 100 nM | 1000 to 10000 nM | – | –
9 | CS(=O)(=O)c1cccc(-c2ccc3cnc(Nc4ccc(N5CCC(CO)CC5)cc4)nn23)c1 [Example 96, (1-{4-[7-(3-Methanesulfonyl-phenyl)-pyrrolo[2,1-f][1,2,4]triazin-2-ylamino]-phenyl}-piperidin-4-yl)-methanol] | – | – | < 100 nM | 100 to 1000 nM
10 | O=S(=O)(c1cccc(-c2ccc3cnc(Nc4ccc(C5CCN(CCO)CC5)cc4)nn23)c1)N1CCOCC1 [Example 677, 2-[4-(4-{7-[3-(Morpholine-4-sulfonyl)-phenyl]-pyrrolo[2,1-f][1,2,4]triazin-2-ylamino}-phenyl)-piperidin-1-yl]-ethanol] | < 100 nM | 100 to 1000 nM | – | –
11 | COc1cc(C2CCN(CC(N)=O)CC2)ccc1Nc1ncc2ccc(-c3cc(F)c(F)cc3N(C)S(C)(=O)=O)n2n1 [Example 746, 2-[4-(4-{7-[4,5-Difluoro-2-(methanesulfonyl-methyl-amino)-phenyl]-pyrrolo[2,1-f][1,2,4]triazin-2-ylamino}-3-methoxy-phenyl)-piperidin-1-yl]-acetamide] | 1000 to 10000 nM | < 100 nM | – | –
12 | COc1cc(N2CCCC(N3CCOCC3)C2)ccc1Nc1ncc2ccc(-c3ccccc3OC)n2n1 (stereo not shown) [Example 1444, [2-Methoxy-4-(3-morpholin-4-yl-piperidin-1-yl)-phenyl]-[7-(2-methoxy-phenyl)-pyrrolo[2,1-f][1,2,4]triazin-2-yl]-amine] | – | – | 100 to 1000 nM | < 100 nM
13 | CN1CCN(c2ccc(Nc3ncc4ccc(-c5cccc(S(C)(=O)=O)c5)n4n3)cc2)CC1 [Example 82, [7-(3-Methanesulfonyl-phenyl)-pyrrolo[2,1-f][1,2,4]triazin-2-yl]-[4-(4-methyl-piperazin-1-yl)-phenyl]-amine] | – | – | < 100 nM | 100 to 1000 nM
14 | COc1ccc(Cl)cc1-c1ccc2cnc(Nc3ccc(N4CCCC4)cc3)nn12 [Example 168, [7-(5-Chloro-2-methoxy-phenyl)-pyrrolo[2,1-f][1,2,4]triazin-2-yl]-(4-pyrrolidin-1-yl-phenyl)-amine] | – | – | < 100 nM | 1000 to 10000 nM
15 | CC(C)(C)NS(=O)(=O)c1cccc(-c2ccc3cnc(Nc4cccc(-n5cccn5)c4)nn23)c1 [Example 1386, N-tert-Butyl-3-[2-(3-pyrazol-1-yl-phenylamino)-pyrrolo[2,1-f][1,2,4]triazin-7-yl]-benzenesulfonamide] | – | – | < 100 nM | 1000 to 10000 nM
16 | COc1cc(C2CCNCC2)ccc1Nc1ncc2ccc(-c3cccc4c3NC(=O)C4)n2n1 [Example 714, 7-[2-(2-Methoxy-4-piperidin-4-ylphenylamino)pyrrolo[2,1-f][1,2,4]triazin-7-yl]-1,3-dihydro-indol-2-one] | 1000 to 10000 nM | 1000 to 10000 nM | – | –
17 | O=C(c1cccc(-c2ccc3cnc(Nc4ccc(N5CCOCC5)cc4)nn23)c1)N1CCCC1 [Example 15, {3-[2-(4-Morpholin-4-yl-phenylamino)-pyrrolo[2,1-f][1,2,4]triazin-7-yl]-phenyl}-pyrrolidin-1-yl-methanone] | – | – | < 100 nM | 100 to 1000 nM
18 | CC(=O)Nc1cccc(Nc2ncc3ccc(-c4ccccc4N(C)S(C)(=O)=O)n3n2)c1 [Example 1375, N-(3-{7-[2-(Methanesulfonyl-methyl-amino)-phenyl]-pyrrolo[2,1-f][1,2,4]triazin-2-ylamino}-phenyl)-acetamide] | – | – | < 100 nM | 100 to 1000 nM
19 | N#Cc1ccc(-c2ccc3cnc(Nc4ccc(N5CCOCC5)cc4)nn23)cn1 [Example 37, 5-[2-(4-Morpholin-4-yl-phenylamino)-pyrrolo[2,1-f][1,2,4]triazin-7-yl]-pyridine-2-carbonitrile] | – | – | < 100 nM | 1000 to 10000 nM
20 | CN1CCN(C)C(c2cccc(Nc3ncc4ccc(-c5ccc(S(C)(=O)=O)cc5)n4n3)c2)C1=O (stereo not shown) [Example 1084, 3-{3-[7-(4-Methanesulfonyl-phenyl)-pyrrolo[2,1-f][1,2,4]triazin-2-ylamino]-phenyl}-1,4-dimethyl-piperazin-2-one] | < 100 nM | > 10000 nM | – | –
21 | COc1cc(N2CCN(C3CCN(C)CC3)CC2)ccc1Nc1ncc2ccc(-c3ccccc3OC)n2n1 [Example 231, {2-Methoxy-4-[4-(1-methyl-piperidin-4-yl)-piperazin-1-yl]-phenyl}-[7-(2-methoxy-phenyl)-pyrrolo[2,1-f][1,2,4]triazin-2-yl]-amine] | – | – | < 100 nM | < 100 nM
22 | CS(=O)(=O)c1ccc(-c2ccc3cnc(Nc4ccc5[nH]c(CN6CCOCC6)nc5c4)nn23)cc1 [Example 1541, [7-(4-Methanesulfonyl-phenyl)-pyrrolo[2,1-f][1,2,4]triazin-2-yl]-(2-morpholin-4-ylmethyl-1H-benzimidazol-5-yl)-amine] | – | – | < 100 nM | > 10000 nM
23 | CC(C)S(=O)(=O)c1ccc(-c2ccc3cnc(Nc4cccc(N5CCOCC5)c4)nn23)cc1 [Example 192, (3-Morpholin-4-yl-phenyl)-{7-[4-(propane-2-sulfonyl)-phenyl]-pyrrolo[2,1-f][1,2,4]triazin-2-yl}-amine] | – | – | < 100 nM | 1000 to 10000 nM
24 | COc1cncc(-c2ccc3cnc(Nc4ccc5c(c4)CCN(CC(=O)N(C)C)CC5)nn23)c1 [Example 1575] | – | – | < 100 nM | 100 to 1000 nM
25 | CC(C)(C)NS(=O)(=O)c1cccc(-c2ccc3cnc(Nc4ccc(C5CCNCC5O)cc4)nn23)c1 (stereo not shown) [Example 1014, N-tert-Butyl-3-{2-[4-(3-hydroxy-piperidin-4-yl)-phenylamino]-pyrrolo[2,1-f][1,2,4]triazin-7-yl}-benzenesulfonamide] | < 100 nM | < 100 nM | – | –
26 | CC(=O)N1CCc2ccc(Nc3ncc4ccc(-c5cccc(C(=O)NC(C)(C)C)c5)n4n3)cc21 [Example 887, 3-[2-(1-Acetyl-2,3-dihydro-1H-indol-6-ylamino)-pyrrolo[2,1-f][1,2,4]triazin-7-yl]-N-tert-butyl-benzamide] | 100 to 1000 nM | > 10000 nM | – | –
27 | CS(=O)(=O)Nc1ccccc1-c1ccc2cnc(Nc3cccc(OCCN4CCOCC4)c3)nn12 [Example 1002, N-(2-{2-[3-(2-Morpholin-4-yl-ethoxy)-phenylamino]-pyrrolo[2,1-f][1,2,4]triazin-7-yl}-phenyl)-methanesulfonamide] | < 100 nM | 1000 to 10000 nM | – | –
28 | CC(=O)Nc1cc(Nc2ncc3ccc(-c4cnn(C)c4)n3n2)ccc1Cl [Example 962, N-{2-Chloro-5-[7-(1-methyl-1H-pyrazol-4-yl)pyrrolo[2,1f][1,2,4]triazin-2-ylamino]-phenyl}-acetamide] | < 100 nM | 1000 to 10000 nM | – | –
29 | COc1ccc(Cl)cc1-c1ccc2cnc(Nc3cc(OC)c(OC)c(OC)c3)nn12 [Example 141, [7-(5-Chloro-2-methoxy-phenyl)-pyrrolo[2,1-f][1,2,4]triazin-2-yl]-(3,4,5-trimethoxy-phenyl)-amine] | – | – | < 100 nM | 100 to 1000 nM
